Laboratory results taken from patent US11230541B2, “Heterocyclic compound” (Takeda Pharmaceutical Company Limited, priority 2017, dated 2022).
Structures can show the parent of a compound that is named as a salt.

molecular target: T1, NMDA receptor composed of four subunits including 2 sets of heterodimers of NR1 and NR2B (Homo sapiens, UniProt Q13224); assay: NR2B Ca2+ influx assay (FLIPR, Fluo-4) in HEK293 cells expressing human GRIN1 and GRIN2B; assay type: cell-based; conditions: HEK293, 10 μM final compound concentration, glutamic acid/glycine-induced Ca2+ influx, read-out: inhibitory rate (10 μM compound concentration)
T1 construct: host or cells: HEK293 (tetracycline-induced expression)
T1 sequence (Q13224 27-1484, other chains not shown): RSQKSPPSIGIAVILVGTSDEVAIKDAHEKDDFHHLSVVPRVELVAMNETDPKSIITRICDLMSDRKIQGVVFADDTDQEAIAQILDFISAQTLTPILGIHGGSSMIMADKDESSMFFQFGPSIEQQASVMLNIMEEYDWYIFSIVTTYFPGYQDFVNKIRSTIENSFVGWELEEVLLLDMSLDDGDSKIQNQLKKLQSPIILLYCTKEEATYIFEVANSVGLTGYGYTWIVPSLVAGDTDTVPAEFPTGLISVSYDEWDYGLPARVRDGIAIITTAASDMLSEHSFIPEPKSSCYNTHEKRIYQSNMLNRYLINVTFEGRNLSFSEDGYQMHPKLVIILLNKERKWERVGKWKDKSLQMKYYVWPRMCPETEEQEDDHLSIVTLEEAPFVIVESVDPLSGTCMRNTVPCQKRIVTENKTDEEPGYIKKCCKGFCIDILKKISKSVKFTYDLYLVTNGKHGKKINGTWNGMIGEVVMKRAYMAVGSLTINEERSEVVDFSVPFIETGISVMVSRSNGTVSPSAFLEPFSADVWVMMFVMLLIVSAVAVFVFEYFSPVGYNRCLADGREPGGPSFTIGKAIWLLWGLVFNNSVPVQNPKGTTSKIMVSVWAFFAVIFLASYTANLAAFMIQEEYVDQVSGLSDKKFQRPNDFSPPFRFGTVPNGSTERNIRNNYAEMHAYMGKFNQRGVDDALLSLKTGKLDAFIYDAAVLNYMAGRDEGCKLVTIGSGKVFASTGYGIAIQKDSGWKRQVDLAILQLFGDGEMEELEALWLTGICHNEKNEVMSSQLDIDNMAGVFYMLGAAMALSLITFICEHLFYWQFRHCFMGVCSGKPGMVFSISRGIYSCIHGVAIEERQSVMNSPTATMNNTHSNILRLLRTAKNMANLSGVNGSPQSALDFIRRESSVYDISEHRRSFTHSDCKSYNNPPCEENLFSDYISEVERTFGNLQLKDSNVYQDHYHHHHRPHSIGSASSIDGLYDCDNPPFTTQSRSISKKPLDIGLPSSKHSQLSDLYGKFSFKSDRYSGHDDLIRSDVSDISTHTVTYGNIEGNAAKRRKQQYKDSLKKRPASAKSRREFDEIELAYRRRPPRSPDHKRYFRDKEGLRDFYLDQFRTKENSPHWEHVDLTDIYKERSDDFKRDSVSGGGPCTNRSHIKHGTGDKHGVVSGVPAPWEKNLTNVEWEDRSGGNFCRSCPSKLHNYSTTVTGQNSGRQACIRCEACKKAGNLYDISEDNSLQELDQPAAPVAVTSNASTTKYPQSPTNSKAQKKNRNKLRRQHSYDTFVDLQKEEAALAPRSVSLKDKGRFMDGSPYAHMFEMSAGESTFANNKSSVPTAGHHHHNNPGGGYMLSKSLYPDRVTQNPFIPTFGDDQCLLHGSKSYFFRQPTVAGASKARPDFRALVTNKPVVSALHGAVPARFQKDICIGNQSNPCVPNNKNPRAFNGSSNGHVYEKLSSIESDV
How it was run: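 Tetracycline-induced (2 h) HEK293 cells expressing human GRIN1/GRIN2B, Fluo-4-loaded, were preincubated 15 min at room temperature with compound at 10 μM final. FLIPR recorded Ca2+ influx every 3 s for 5 min after glutamate/glycine addition (30 μM in added buffer); inhibition from cumulative fluorescence relative to agonist-free wells.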

SMILES	inhibition at 10 µM [%]
COc1ccc2ncn(C)c2c1CNC(=O)c1cc(F)c(OC)c(Cl)c1 [Example 111, 3-chloro-5-fluoro-4-methoxy-N-((6-methoxy-1-methyl-1H-benzimidazol-7-yl)methyl)benzamide]	93
Cc1ccc2[nH]nnc2c1CNC(=O)c1ccc(C(F)(F)F)c(F)c1 [Example 199, 3-fluoro-N-((5-methyl-1H-benzotriazol-4-yl)methyl)-4-(trifluoromethyl)-benzamide]	92
COc1ccc2nc(C)n(C)c2c1CNC(=O)c1cc(F)c(OC(F)F)c(F)c1 [Example 246, 4-(difluoromethoxy)-3,5-difluoro-N-((6-methoxy-1,2-dimethyl-1H-benzimidazol-7-y1)methyl)benzamide]	87
O=C(NCc1cccc2[nH]ncc12)c1ccc(OC(F)F)cc1 [Example 183, 4-(difluoromethoxy)-N-(1H-indazol-4-ylmethyl)benzamide]	87
COc1c(F)cc(C(=O)NCc2cccc3[nH]ncc23)cc1F [Example 180, 3,5-difluoro-N-(1H-indazol-4-ylmethyl)-4-methoxybenzamide]	89
O=C(NCc1cccc2[nH]ncc12)c1csc(Cl)c1 [Example 166, 5-chloro-N-(1H-indazol-4-ylmethyl)thiophene-3-carboxamide]	56
COc1ccc2ncn(C)c2c1CNC(=O)Cc1cccs1 [Example 33, N-((6-methoxy-1-methyl-1H-benzimidazol-7-yl)methyl)-2-(2-thienyl)acetamide]	86
COc1ccc2ncn(C)c2c1CNC(=O)Nc1cccc(F)c1 [Example 216, 1-(3-fluorophenyl)-3-((6-methoxy-l-methyl-1H-benzimidazol-7-yl)methyl)urea]	78
O=C(NCc1c(C2CC2)ccc2[nH]ncc12)c1cc(F)c(OC(F)F)c(F)c1 [Example 153, N-((5-cyclopropyl-1H-indazol-4-yl)methyl)-4-(difluoromethoxy)-3,5-difluorobenzamide]	90
COc1c(F)cc(C(=O)NCc2c(C3CC3)ccc3ncn(C)c23)cc1F [Example 21]	91
Cc1n[nH]c2cccc(CNC(=O)c3ccc(OC(F)(F)F)c(F)c3)c12 [Example 269, 3-fluoro-N-((3-methyl-1H-indazol-4-yl)methyl)-4-(trifluoromethoxy)-benzamide]	87
COc1cc(C(=O)NCc2c(C3CC3)ccc3[nH]ncc23)ccc1F [Example 72, N-((5-cyclopropyl-1H-indazol-4-yl)methyl)-4-fluoro-3-methoxy-benzamide]	89
O=C(NCc1c(C2CC2)ccc2[nH]ncc12)c1cc(F)c(C(F)F)c(F)c1 [Example 108, N-((5-cyclopropyl-1H-indazol-4-yl)methyl)-(difluoromethyl)-3,5-dlfluorobenzamide]	94
CCc1ccc2[nH]nnc2c1CNC(=O)c1cc(F)c(C(F)(F)F)c(F)c1 [Example 205, N-((5-ethyl-1H-benzotriazol-4-yl)methyl)-3,5-difluoro-4-(trifluoromethyl)-benzamide]	87
COc1csc(C(=O)NCc2c(C3CC3)ccc3[nH]ncc23)c1 [Example 68, N-((5-cyclopropyl-1H-indazol-4-yl)methyl)-methoxythiophene-2-carboxamide]	86
O=C(NCc1c(C2CC2)ccc2[nH]ncc12)c1csc(C(F)F)c1 [Example 154, N-((5-cyclopropyl-1H-indazol-4-yl)methyl)-5-(difluoromethyl)-thiophene-3-carboxamide]	91
O=C(NCc1cccc2[nH]ncc12)c1cc(Cl)c(Cl)s1 [Example 168, 4,5-dichloro-N-(1H-indazol-4-ylmethyl)thiophene-2-carboxamide]	90
O=C(NCc1cccc2[nH]nc(Br)c12)c1ccc(OC(F)(F)F)c(F)c1 [Example 272, N-[(3-bromo-1H-indazol-4-yl)methyl]-3-fluoro-4-(trifluoromethoxy)-benzamide]	59
O=C(NCc1c(C(F)(F)F)ccc2[nH]ncc12)c1ccc(OC(F)(F)F)cc1 [Example 5, 4-(trifluoromethoxy)-N-((5-(trifluoromethyl)-1H-indazol-4-yl)methyl)benzamide]	85
O=C(NCc1cccc2[nH]ncc12)c1cc(F)c(C(F)(F)F)c(F)c1 [Example 173, 3,5-difluoro-N-(1H-indazol-4-ylmethyl)-4-(trifluoromethyl)-benzamide]	80
Cc1ccc(C(=O)NCc2c(C)ccc3[nH]nnc23)cc1F [Example 200, 3-fluoro-4-methyl-N-((5-methyl-1H-benzotriazol-4-yl)methyl)benzamide]	85

Further lines, results first:

inhibition at 10 µM [%]	SMILES
95	COc1ccc2ncn(C)c2c1CNC(=O)c1cc(F)c(Cl)c(F)c1 [Example 15, 4-chloro-3,5-difluoro-N-((6-methoxy-1-methyl-1H-benzimidazol-7-yl)methyl)benzamide]
72	COc1ccc2nc(C)n(C)c2c1CNC(=O)c1ccc(OC(F)(F)F)nc1 [Example 233, N-((6-methoxy-1,2-dimethyl-lH-benzimidazol-7-yl)methyl)-6-(trifluoromethoxy)-nicotinamide]
92	COc1ccc2ncn(C)c2c1CNC(=O)c1ccc(C(F)(F)F)s1 [Example 162, N-((6-methoxy-1-methyl-1H-benzimidazol-7-yl)methyl)-5-(trifluoromethyl)-thiophene-2-carboxamide hydrochloride]
90	COc1ccc2ncn(C)c2c1CNC(=O)c1cnc(C(F)(F)F)c(Cl)c1 [Example 113, 5-chloro-N-((6-methoxy-1-methyl-1H-benzimidazol-7-yl)methyl)-6-(trifluoromethyl)-nicotinamide]
64	COc1cc(C(=O)NCc2c(OC)ccc3ncn(C)c23)ccc1Cl [Example 45, 4-chloro-3-methoxy-N-((6-methoxy-1-methyl-1H-benzimidazol-7-yl)methyl)benzamide]
92	Cc1ccc2[nH]ncc2c1CNC(=O)c1ccc(OC(F)(F)F)cc1 [Example 2, N-((5-methyl-1H-indazol-4-yl)methyl)-4-(trifluoromethoxy)benzamide]
92	COc1ccc(C(=O)NCc2c(OC)ccc3ncn(C)c23)cc1F [Example 11, 3-fluoro-4-methoxy-N-((6-methoxy-1-methyl-1H-benzimidazol-7-yl)methyl)benzamide]
91	COc1ccc2ncn(C)c2c1CNC(=O)Nc1ccc(C(F)(F)F)cc1 [Example 262, 1-((6-methoxy-1-methyl-1H-benzimidazol-7-yl)methyl)-3-(4-(trifluoromethyl)-phenyl)urea]
83	COc1ccc2ncn(C)c2c1CNC(=O)Nc1ccc(OC(F)(F)F)cc1 [Example 223, 1-((6-methoxy-1-methyl-1H-benzimidazol-7-yl)methyl)-3-(4-(trifluoromethoxy)-phenyl)urea]
90	CCOc1ccc2ncn(C)c2c1CNC(=O)c1ccc(C(F)F)cc1 [Example 140, 4-(difluoromethyl)-N-((6-ethoxy-1-methyl-1H-benzimidazol-7-yl)methyl)benzamide]
83	COc1ncc(C(=O)NCc2c(C)ccc3ncn(C)c23)cc1F [Example 19, N-((1,6-dimethyl-1H-benzimidazol-7-yl)-methyl)-5-fluoro-6-methoxynicotinamide]
91	COc1ccc2ncn(C)c2c1CNC(=O)c1csc(C(F)(F)F)c1 [Example 139, N-((6-methoxy-1-methyl-1H-benzimidazol-7-yl)methyl)-5-(trifluoromethyl)thiophene-3-carboxamide]
88	Cc1ccc2ncn(C)c2c1CNC(=O)c1ccc(OC(F)(F)F)nc1 [Example 138, N-((1,6-dimethyl-1H-benzimidazol-7-yl)methyl)-6-(trifluoromethoxy)-nicotinamide]
69	COc1ccc2nc(C)n(C)c2c1CNC(=O)c1ccc(OC(F)F)nc1 [Example 254, 6-(difluoromethoxy)-N-((6-methoxy-1,2-dimethyl-lH-benzimidazol-7-yl)methyl)nicotinamide]
90	CCc1ccc2ncn(C)c2c1CNC(=O)c1cnc(OC)c(F)c1 [Example 22, N-((6-ethyl-1-methyl-1H-benzimidazol-7-yl)-methyl)-5-fluoro-6-methoxynicotinamide]
90	COc1ccc2ncn(C)c2c1CNC(=O)c1csc(Cl)c1 [Example 28, 5-chloro-N-((6-methoxy-1-methyl-1H-benzimidazol-7-yl)nethyl)thiophene-3-carboxamide]
76	O=C(NCc1cccc2[nH]ncc12)c1ccc(OC(F)(F)F)nc1 [Example 170, N-(1H-indazol-4-ylmethyl)-6-(trifluoromethoxy)-nicotinamide]
82	COc1ccc2ncn(C)c2c1CNC(=O)c1csc(C)c1 [Example 27, N-((6-methoxy-1-methyl-1H-benzimidazol-7-yl)-methyl)-5-methylthiophene-3-carboxamide]
92	COc1ccc2ncn(C)c2c1CNC(=O)c1ccc(C(F)F)c(Cl)c1 [Example 112, 3-chloro-4-(difluoromethyl)-N-((6-methoxy-1-methyl-1H-benzimidazol-7-yl)methyl)benzamide]
89	COc1ccc(C(=O)NCc2c(OC)ccc3ncn(C)c23)cc1Cl [Example 34, 3-chloro-4-methoxy-N-((6-methoxy-1-methyl-1H-benzimidazol-7-yl)methyl)benzamide]
89	COc1ccc2ncn(C)c2c1CNC(=O)c1ccc(Cl)c(F)c1 [Example 44, 4-chloro-3-fluoro-N-((6-methoxy-1-methyl-1H-benzimidazol-7-yl)methyl)benzamide]
